# Experiments:
# human skin fibroblasts [1] = test: Extraction assay, mitochondrial metabolic activity (MTT); settings: 24 h
# Procedure: Cell culture. Primary human skin fibroblasts were grown in DMEM complete medium, at 37° C. in a fully humidified air containing 5% CO2 (IR auto Flow). The cells were fed every 2 to 3 days. When cells reached confluence, the culture medium was discarded and the cells washed with 5 mL of 10 mM phosphate buffered saline (PBS) pH 7.4 (Gibco). The cells were then detached with 2 mL of 0.05% (w/v) trypsin (1:250, from porcine pancreas (Sigma)) solution (PBS supplemented with 0.1% and 0.25% of α-D(+) glucose and EDTA, respectively) for 5 min at 37° C., and 3 mL of DMEM complete medium was added to inactivate the trypsin after cell detachment. The cells were centrifuged (10 min, 2500 rpm) and resuspended in culture medium before use. Cultures between the 3rd and 7th passages were used in the entire work.
# All solutions were prepared on the day of application.
# Extraction assay. The extraction assay was performed in two sets of hydrogels. […] In the second set the hydrogels obtained after the polymerization reaction were immersed in 10 mL of 10 mM citrate-phosphate pH 7.0 and immediately autoclaved. Extracts were obtained by immersing autoclaved hydrogels in DMEM (without phenol red) culture medium supplemented with 1% of fungizone and 0.5% of gentamicin, at 37° C., for 5 days with agitation (120 rpm). The ratio between the surface area of the material and the volume of extraction medium was 3 cm^2/mL. Following incubation the medium containing the extract was collected, filtered (0.22 μm; to eliminate the possible presence of solid particles of the material) and supplemented with 10% of serum. Human skin fibroblasts were plated in 96-well plates (TPP, Switzerland) and grown to subconfluency. The culture medium was removed and replaced with the extract media for 24 h at 37° C. Phenol (64 g/L, BDH) which is considered cytotoxic^17, was used as a positive control. Culture medium without extracts, incubated as described above, was used as a negative control. Following incubation the extracts were discarded and the mitochondrial metabolic activity of the cells was measured with the MTT assay.
# Mitochondrial metabolic activity assay. For 96-well plates, the cell layers were rinsed with PBS (110 μL) and 110 μL of MTT (0.45 mg/mL in DMEM complete medium w/o phenol red) was added to each well. For 6-well plates, after PBS washing (1 mL), 2.5 mL of MTT solution was added. After 3 h incubation at 37° C., the MTT solution was removed and the insoluble formazan crystals formed in the bottom of the wells were dissolved in 100 μL or 1 mL of DMSO, for 96 and 6-well plates respectively. The absorbance was measured at 540 nm using a plate reader (STL Spectra III, Austria).
# human skin fibroblasts [2] = test: Cell proliferation inhibition index (CPII) assay: direct contact assay; settings: 72 h
# Procedure: Cell proliferation inhibition index (CPII) assay: direct contact assay. […] Since each well has a surface area of 0.31 cm^2, the final seeding density was ca. 5×10^3 cells/cm^2. After 4 h (the cells were adherent to the well bottom), the culture medium was discarded and 200 μL of each test solution was added to each well. For the control culture, the medium was refreshed. Seventy-two hours after the addition of test solutions, the extracts were discarded and the cell layer was washed with PBS to remove remaining materials and loose cells. The metabolic activity of the cells was then measured with the MTT test (see below). The CPII was calculated using eq. 6: [formula]
# To evaluate the CPII for dexT70-VA hydrogels (extracted for 3 days in water at 25° C. and then sterilized by autoclave), 3 mL of a fibroblast suspension containing 1.5×10^4 cells/mL was plated into each well of a 6-well plate, to yield a final density of 5×10^3 cells/cm^2. After 4 h, the culture medium was refreshed (3 mL) and the hydrogels were added to the wells, in direct contact with cells (FIG. 1A). For the control culture, the culture medium was refreshed. After 72 h of incubation, the metabolic activity of the cells was assessed as previously described and the CPII calculated according to eq.6.
# Mitochondrial metabolic activity assay. […] The absorbance was measured at 540 nm using a plate reader (STL Spectra III, Austria).
increase in the MMAF (human skin fibroblasts [1]; solution 10 mg/mL),effect on MMAF (human skin fibroblasts [1]; solution 20-100 mg/mL),Compound,effect on MMAF (human skin fibroblasts [1]; concentrations above 2.5 μL/mL),CPII (human skin fibroblasts [2]; all concentrations),CPII (human skin fibroblasts [2]; above 2.5 μL/mL)
–,–,"N.N.O=S(=O)(O)OOS(=O)(=O)O [APS, ammonium persulfate]",significant (P<0.001) decrease in MMAF,ca. 90%,–
–,–,"CN(C)CCN(C)C [TEMED, N,N,N′,N′-tetramethylenediamine]",significant (P<0.001) decrease in MMAF,–,the same phenomenon was observed
ca. 20%,not significant,Dextran [reference compound],–,–,–

# Source: patent US20040137582A1, “Methods for manufacturing polysaccharide derivatives” (priority 2002, published 2004)
